Experimental findings from ChEMBL document CHEMBL3785049, “Fragment-based discovery of inhibitor scaffolds targeting the metallo-β-lactamases NDM-1 and VIM-2” (Bioorg Med Chem Lett, 2016) are described below.

Experiment [1] deals with T1, Metallo-beta-lactamase type 2 (Klebsiella pneumoniae, UniProt C7C422). In words: Binding affinity to His-tagged Klebsiella pneumoniae NDM-1 expressed in Escherichia coli BL21-AI cells by surface plasmon resonance assay.
The target of experiment [2] is Metallo-beta-lactamase type 2 (Klebsiella pneumoniae) (UniProt C7C422). Kind of experiment: Ratio of IC50 for inhibition of His-tagged Klebsiella pneumoniae NDM-1 expressed in Escherichia coli BL21-AI cells using imipinem as substrate to Kd for Binding affinity to His-tagged Klebsiella pneumoniae NDM-1 expressed in Escherichia coli BL21-AI cells by surface plasmon resonance assay. On the technique in general: SPR reads the build-up and loss of mass on a sensor chip optically.
Sequence of Metallo-beta-lactamase type 2 (Klebsiella pneumoniae) (C7C422 whole entry): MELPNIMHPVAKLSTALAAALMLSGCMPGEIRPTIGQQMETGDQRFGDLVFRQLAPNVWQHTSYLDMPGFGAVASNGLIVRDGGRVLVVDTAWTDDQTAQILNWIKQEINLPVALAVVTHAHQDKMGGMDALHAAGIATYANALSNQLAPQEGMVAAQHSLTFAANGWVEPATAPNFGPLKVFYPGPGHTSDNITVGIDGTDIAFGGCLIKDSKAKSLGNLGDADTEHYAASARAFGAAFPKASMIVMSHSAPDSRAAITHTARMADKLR

The target is the same in experiment [3]. In words: Inhibition of His-tagged Klebsiella pneumoniae NDM-1 expressed in Escherichia coli BL21-AI cells at 500 uM using imipinem as substrate.
In experiment [4] the target is T1, Metallo-beta-lactamase type 2. Kind of experiment: Inhibition of His-tagged Klebsiella pneumoniae NDM-1 expressed in Escherichia coli BL21-AI cells using imipinem as substrate. The settings on record: for pIC50: read-out: IC50.
The target is the same in experiment [5]. In words: Competitive inhibition of His-tagged Klebsiella pneumoniae NDM-1 expressed in Escherichia coli BL21-AI cells using imipinem as substrate.

Molecules are shown by their SMILES. pIC50, pKd, pKi: −log10 of the molar value.

T1 sequence (C7C422 whole entry): as above

In general, pKd refers to the Kd on a negative log10 scale, so that one unit is a factor of ten. In experiment [1], `C[C@@H](O)[C@H]1C(=O)N2C(C(=O)O)=C(S[C@@H]3CN[C@H](C(=O)N(C)C)C3)[C@H](C)[C@H]12` [MEROPENEM] had a negative logarithm of the Kd (pKd) of 4.96.

For orientation: inhibition means the relative decrease from the control value, in per cent. A low value points to a weak effect. By pIC50 is commonly meant −log10 of the IC50, conventionally taken in molar units. With `O=C(O)CCCc1c[nH]c2ccccc12`, the Ratio in experiment [2] was determined as 1.5. For the same compound, the inhibition in experiment [3] is > 20%. In experiment [4], the pIC50 is 2.71. In experiment [1], this compound showed a negative logarithm of the Kd (pKd) of 3.09.

Consider `O=C(O)CSc1ccnc2cc(Cl)ccc12`, for which the Ratio in experiment [2] was determined as 1.5. Further, the inhibition in experiment [3] was > 20%. The pIC50 in experiment [4] is 2.91. Besides, the IC50 in experiment [4] (read-out: pIC50 (converted)) is 1070 µM. The compound further gave a pKd in experiment [1] of 3.09.

For orientation: pKi means the Ki on a negative log10 scale, so that one unit is a factor of ten. Read a low pKi as a large Ki. For the compound `N#Cc1coc2ccccc2c1=O`, the Ratio in experiment [2] is 1.5. This compound had a pKi in experiment [5] of 3.73. Also, in experiment [3], the inhibition was > 20%. Further, in experiment [4], the pIC50 was 3.32. This compound had a pKd in experiment [1] of 3.74.

Consider `CCCc1ccc(C(=O)CCC(=O)O)cc1`, for which the Ratio in experiment [2] worked out at 1.5. The inhibition in experiment [3] was > 20%. Moreover, in experiment [4], the pIC50 is 2.51. The pKd in experiment [1] was 2.68.
